Entries after “also recorded” stand apart in the source; their conditions may differ.
Assays:
PI3K = test system: T1, PI3K; assay: ADP-Glo kinase assay; type: biochemical; settings: 50 µM
T1 construct: purchased SignalChem P27-10H-05

activated Akt = assay: Substrate peptide phosphorylation by activated Akt (ELISA-based); type: biochemical; settings: 20 µM G7, ATP and substrate peptide
PRP4 = test system: T2, PRP4; assay: KINOMEscan; type: binding, human; settings: 50000 nM
T2 construct: purchased DiscoveRx KINOMEscan

ACVR2A = assay: KINOMEscan; settings: 50000 nM
Description: KINOMEscan™ selectivity screen
(§1) The assay was perfor med at DiscoveRx Corporation according the methods published previously5. Briefly, Kinase-tagged T7 phage strains were grown in parallel in an E. coli host derived from the BL21 strain. E. coli were grown to log-phase and infected with T7 phage from a frozen stock and incubated with shaking at 32°C until lysis (90-150 minutes). The kinases were produced in HEK-293 cells and subsequently tagged with DNA for qPCR detection. Streptavidin-coated magnetic beads were treated with biotinylated small molecule ligands to generate affinity resins for kinase
(§2) inhibitor or DMSO control was performed in polypropylene 384-well plates for 1 hr at room temperature. After wash with PBS buffer containing 0.05% Tween 20, the beads were incubated in elution buffer (PBS containing 0.05 % Tween 20 and 0.5 μM non-biotinylated affinity ligand) for 30 minutes at room temperature. The kinase concentration in the eluates was measured by qPCR.

ACVR2B = assay: KINOMEscan; settings: 50000 nM
Description: KINOMEscan™ selectivity screen
as §1, §2

CHEK2 = assay: KINOMEscan; settings: 50000 nM
Description: KINOMEscan™ selectivity screen
(§3) Briefly, Kinase-tagged T7 phage strains were grown in parallel in an E. coli host derived from the BL21 strain. E. coli were grown to log-phase and infected with T7 phage from a frozen stock and incubated with shaking at 32°C until lysis (90-150 minutes). The kinases were produced in HEK-293 cells and subsequently tagged with DNA for qPCR detection. Streptavidin-coated magnetic beads were treated with biotinylated small molecule ligands to generate affinity resins for kinase
as §2

HCK = assay: KINOMEscan; settings: 50000 nM
Description: KINOMEscan™ selectivity screen
as §3, §2

p38-gamma = assay: KINOMEscan; settings: 50000 nM
Description: KINOMEscan™ selectivity screen
as §3, §2

PIK3CA(C420R) = assay: KINOMEscan; settings: 50000 nM
Description: KINOMEscan™ selectivity screen
as §3, §2

PRKCE = assay: KINOMEscan; settings: 50000 nM
Description: KINOMEscan™ selectivity screen
as §1, §2

PRKG2 = assay: KINOMEscan; settings: 50000 nM
Description: KINOMEscan™ selectivity screen
as §1, §2

[1] = test system: RSK2(Kin.Dom.2-C-terminal); assay: KINOMEscan; settings: 50000 nM
Description: KINOMEscan™ selectivity screen
as §1, §2

PCTK2 = assay: KINOMEscan; settings: 50000 nM
Description: KINOMEscan™ selectivity screen
as §1, §2

HIPK4 = assay: KINOMEscan; settings: 50000 nM
Description: KINOMEscan™ selectivity screen
as §1, §2

AMPK-alpha2 = assay: KINOMEscan; settings: 50000 nM
Description: KINOMEscan™ selectivity screen
as §1, §2

STK36 = assay: KINOMEscan; settings: 50000 nM
Description: KINOMEscan™ selectivity screen
as §1, §2

TBK1 = assay: KINOMEscan; settings: 50000 nM
Description: KINOMEscan™ selectivity screen
as §1, §2

AKT2 = assay: KINOMEscan; settings: 50000 nM
Description: KINOMEscan™ selectivity screen
as §3, §2

PCTK1 = assay: KINOMEscan; settings: 50000 nM
Description: KINOMEscan™ selectivity screen
as §3, §2

AMPK-alpha1 = assay: KINOMEscan; settings: 50000 nM
Description: KINOMEscan™ selectivity screen
as §1, §2

ERK1 = assay: KINOMEscan; settings: 50000 nM
Description: KINOMEscan™ selectivity screen
as §1, §2

ERBB3 = assay: KINOMEscan; settings: 50000 nM
Description: KINOMEscan™ selectivity screen
as §1, §2

NDR2 = assay: KINOMEscan; settings: 50000 nM
Description: as §3, §2

SRMS = assay: KINOMEscan; settings: 50000 nM
Description: as §3, §2

DDR2 = assay: KINOMEscan; settings: 50000 nM
Description: KINOMEscan™ selectivity screen
as §1, §2

ALK(L1196M) = assay: KINOMEscan; settings: 50000 nM
Description: KINOMEscan™ selectivity screen
as §1, §2

NDR1 = assay: KINOMEscan; settings: 50000 nM
Description: KINOMEscan™ selectivity screen
as §3, §2

RET(V804L) = assay: KINOMEscan; settings: 50000 nM
Description: KINOMEscan™ selectivity screen
as §1, §2

MLK1 = assay: KINOMEscan; settings: 50000 nM
Description: KINOMEscan™ selectivity screen
as §1, §2

PIK3CA = assay: KINOMEscan; settings: 50000 nM
Description: KINOMEscan™ selectivity screen
as §1, §2

CSNK1A1L = assay: KINOMEscan; settings: 50000 nM
Description: KINOMEscan™ selectivity screen
as §1, §2

CAMKK1 = assay: KINOMEscan; settings: 50000 nM
Description: KINOMEscan™ selectivity screen
as §1, §2

CLK4 = assay: KINOMEscan; settings: 50000 nM
Description: KINOMEscan™ selectivity screen
as §1, §2

BLK = assay: KINOMEscan; settings: 50000 nM
Description: KINOMEscan™ selectivity screen
as §3, §2

DLK = assay: KINOMEscan; settings: 50000 nM
Description: KINOMEscan™ selectivity screen
as §1, §2

TRPM6 = assay: KINOMEscan; settings: 50000 nM
Description: KINOMEscan™ selectivity screen
as §3, §2

CAMK1G = assay: KINOMEscan; settings: 50000 nM
Description: KINOMEscan™ selectivity screen
as §3, §2

MAK = assay: KINOMEscan; settings: 50000 nM
Description: KINOMEscan™ selectivity screen
as §1, §2

STK16 = assay: KINOMEscan; settings: 50000 nM
Description: KINOMEscan™ selectivity screen
(§4) The kinases were produced in HEK-293 cells and subsequently tagged with DNA for qPCR detection. Streptavidin-coated magnetic beads were treated with biotinylated small molecule ligands to generate affinity resins for kinase
as §2

CSNK1G2 = assay: KINOMEscan; settings: 50000 nM
Description: KINOMEscan™ selectivity screen
as §4, §2

FLT4 = assay: KINOMEscan; settings: 50000 nM
Description: KINOMEscan™ selectivity screen
as §1, §2

MAP3K15 = assay: KINOMEscan; settings: 50000 nM
Description: KINOMEscan™ selectivity screen
as §3, §2

PIK3CB = assay: KINOMEscan; settings: 50000 nM
Description: KINOMEscan™ selectivity screen
as §3, §2

[2] = test system: ABL1(H396P)-phosphorylated; assay: KINOMEscan; settings: 50000 nM
Description: KINOMEscan™ selectivity screen
as §1, §2

[3] = test system: ABL1(M351T)-phosphorylated; assay: KINOMEscan; settings: 50000 nM
Description: KINOMEscan™ selectivity screen
(§5) The assay was perfor med at DiscoveRx Corporation according the methods published previously5. […] The kinases were produced in HEK-293 cells and subsequently tagged with DNA for qPCR detection. Streptavidin-coated magnetic beads were treated with biotinylated small molecule ligands to generate affinity resins for kinase
as §2

YSK4 = assay: KINOMEscan; settings: 50000 nM
Description: KINOMEscan™ selectivity screen
as §1, §2

MST4 = assay: KINOMEscan; settings: 50000 nM
Description: KINOMEscan™ selectivity screen
as §5, §2

MYLK4 = assay: KINOMEscan; settings: 50000 nM
Description: KINOMEscan™ selectivity screen
as §1, §2

VPS34 = assay: KINOMEscan; settings: 50000 nM
Description: KINOMEscan™ selectivity screen
as §1, §2

[4] = test system: RSK4(Kin.Dom.1-N-terminal); assay: KINOMEscan; settings: 50000 nM
Description: KINOMEscan™ selectivity screen
as §1, §2

GSK3A = assay: KINOMEscan; settings: 50000 nM
Description: KINOMEscan™ selectivity screen
as §3, §2

KIT(V559D) = assay: KINOMEscan; settings: 50000 nM
Description: KINOMEscan™ selectivity screen
as §3, §2

[5] = test system: RSK2(Kin.Dom.1-N-terminal); assay: KINOMEscan; settings: 50000 nM
Description: KINOMEscan™ selectivity screen
as §1, §2

Compound: Oc1cc(-c2ccccc2)c2ccccc2n1 [G7, 4-phenylquinolin-2(1H)-one]
- effect on PI3K activity (PI3K): no effects
- effect on phosphorylation capability of activated Akt (activated Akt): No effects; also recorded: only negligible change
- Percent Control (PRP4): 79%
- Percent Control (ACVR2A): 100%
- Percent Control (ACVR2B): 100%
- Percent Control (CHEK2): 100%
- Percent Control (HCK): 100%
- Percent Control (p38-gamma): 100%
- Percent Control (PIK3CA(C420R)): 100%
- Percent Control (PRKCE): 100%
- Percent Control (PRKG2): 100%
- Percent Control [1]: 100%
- Percent Control (PCTK2): 99%
- Percent Control (HIPK4): 98%
- Percent Control (AMPK-alpha2): 97%
- Percent Control (STK36): 95%
- Percent Control (TBK1): 95%
- Percent Control (AKT2): 93%
- Percent Control (PCTK1): 91%
- Percent Control (AMPK-alpha1): 90%
- Percent Control (ERK1): 89%
- Percent Control (ERBB3): 88%
- Percent Control (NDR2): 88%
- Percent Control (SRMS): 88%
- Percent Control (DDR2): 87%
- Percent Control (ALK(L1196M)): 85%
- Percent Control (NDR1): 83%
- Percent Control (RET(V804L)): 83%
- Percent Control (MLK1): 82%
- Percent Control (PIK3CA): 82%
- Percent Control (CSNK1A1L): 81%
- Percent Control (CAMKK1): 80%
- Percent Control (CLK4): 80%
- Percent Control (BLK): 79%
- Percent Control (DLK): 78%
- Percent Control (TRPM6): 78%
- Percent Control (CAMK1G): 77%
- Percent Control (MAK): 77%
- Percent Control (STK16): 75%
- Percent Control (CSNK1G2): 74%
- Percent Control (FLT4): 72%
- Percent Control (MAP3K15): 71%
- Percent Control (PIK3CB): 69%
- Percent Control [2]: 66%
- Percent Control [3]: 55%
- Percent Control (YSK4): 55%
- Percent Control (MST4): 53%
- Percent Control (MYLK4): 43%
- Percent Control (VPS34): 35%
- Percent Control [4]: 34%
- Percent Control (GSK3A): 22%
- Percent Control (KIT(V559D)): 20%
- Percent Control [5]: 17%
